Experimental data published in patent US4110626A, “Method for improving the quality of the fragrance of perfumes using aliphatic dibasic acid diesters” (Shiseido Co., Ltd., priority 1976, dated 1978).
Counter-ions that a name gives are not always drawn.

Legend:
[1] = Fixing effect: analysis of residue on paper after standing 15 minutes; format: physicochemical
Procedure: (§1) Then, the fixing effect was evaluated by a second head space gas chromatographic (II) method (HS-GC (II)). Specifically, a perfume containing 0.7 g of a perfume controlling agent was coated on a sheet of paper having a predetermined thickness, area (11.5 × 7.5 cm), and weight (about 2.9 g). The coated paper was allowed to stand for 15 minutes in an open space in a room (6 × 4 × 2.5 m) maintained at a humidity of 50% at a ventilation rate of 1,500 m^3 /hr. The paper was then transferred into a 1,000 ml Erlenmeyer flask, and the flask was tightly sealed. After a lapse of 15 minutes, the volatilized portion was collected and analyzed by gas chromatography under the conditions shown Table A above. Furthermore, the residue on the paper was extracted with acetone, and analyzed by gas chromatography using conditions shown in Table B below.
Column: 5% FFAP (free fatty acid polyester; a trade name for a product of Nippon Chromato Co., Ltd.) on diatomaceous earth (2m)
Column Temperature: 80° C (5 minutes, isothermal) to 220° C (4° C/min.)
Injector Temperature: 260° C
Detector Temperature: 260° C
Detector: Flame Ionization Detector
Carrier Gas: He (40 ml/min.)
(§2) The composition of the model perfume used was as follows:
The values shown in Table 5 above were obtained by calculating the areas of the perfumes while the area of musk ketone measured by gas chromatography was taken as 1. (This calculating procedure was adopted because musk ketone has a high boiling point, and scarcely volatilizes at 30° C.)

[2] = Fixing effect: HS-GC (II), analysis of volatilized portion after standing 15 minutes; format: physicochemical; conditions: controlling agent 15%, model perfume 5%
Procedure: as §1, §2
Model Perfume: 5% by weight
95% Ethanol: 95% by weight
The composition of the perfume containing a perfume controlling agent was as follows:
Perfume Controlling Agent: 15% by weight
95% Ethanol: 80% by weight

[3] = Acute oral toxicity (LD50); conditions: acute oral toxicity
Pseudomonas aeruginosa = test: Microorganism assimilation; conditions: for OD (turbidity): 660 nm; for Assimilation by microorganism: conclusion from Table 8
Procedure: 100 ml of the above liquid medium was placed in a 500 ml Sakaguchi flask, and sterilized at 120° C for 15 minutes in an autoclave in a customary manner. After cooling, the culture medium was inoculated with a prescribed amount of a suspension of the pre-cultured microorganism and cultivated at 30° C with shaking 120 times per minute.
Changes with time in the pH, turbidity, number of living cells were determined.
The turbidity was determined as follows: 2 ml of the culture broth was collected, and the precipitate was separated with a centrifugal separator. The precipitate was washed with acetone, and suspended in 2 ml of distilled water. The turbidity (OD) of the suspension at 660 nm was measured.

[4] = Citral (not present: 1.5), area of musk ketone taken as 1
[5] = Limonene (not present: 0.3), area of musk ketone taken as 1
[6] = Linalool (not present: 6.4), area of musk ketone taken as 1
[7] = Linalyl Acetate (not present: 5.1), area of musk ketone taken as 1
[8] = Musk Ketone (reference, taken as 1; not present: 1.0)
[9] = Pinene (not present: 0.0), area of musk ketone taken as 1
[10] = Linalyl Acetate (not present: 39.0%)
[11] = Musk ketone (not present: 0.0%)

| Compound | Analysis of Volatilized Portion after Standing 15 Minutes (HS-GC (II) Method) ([2]; Citral (not present: 3.5%)) [%] | Analysis of Volatilized Portion after Standing 15 Minutes (HS-GC (II) Method) ([2]; Limonene (not present: 2.6%)) [%] | Analysis of Volatilized Portion after Standing 15 Minutes (HS-GC (II) Method) ([2]; Linalool (not present: 45.2%)) [%] | Analysis of Volatilized Portion after Standing 15 Minutes (HS-GC (II) Method) [2, 10] [%] | Analysis of Volatilized Portion after Standing 15 Minutes (HS-GC (II) Method) [2, 11] [%] | Analysis of Volatilized Portion after Standing 15 Minutes (HS-GC (II) Method) ([2]; Pinene (not present: 0.2%)) [%] | LD50 [3] [mL/kg] | pH (Pseudomonas aeruginosa; 0 days elapsed) | Number of Living Cells (Pseudomonas aeruginosa; 2 days elapsed) | pH (Pseudomonas aeruginosa; 2 days elapsed) | OD (turbidity) (Pseudomonas aeruginosa; 2 days elapsed) | Number of Living Cells (Pseudomonas aeruginosa; 7 days elapsed) | pH (Pseudomonas aeruginosa; 7 days elapsed) | OD (turbidity) (Pseudomonas aeruginosa; 7 days elapsed) | Number of Living Cells (Pseudomonas aeruginosa; 14 days elapsed) | pH (Pseudomonas aeruginosa; 14 days elapsed) | OD (turbidity) (Pseudomonas aeruginosa; 14 days elapsed) | Assimilation by microorganism (Pseudomonas aeruginosa) | further results |
| --- | --- | --- | --- | --- | --- | --- | --- | --- | --- | --- | --- | --- | --- | --- | --- | --- | --- | --- | --- |
| O=C(OCc1ccccc1)c1ccccc1 [Benzyl Benzoate, benzyl benzoate] | 1.6 | 31.3 | 37.7 | 20.6 | 0.0 | 1.3 | – | – | – | – | – | – | – | – | – | – | – | – | Analysis of Residue on Paper after Standing 15 Minutes (Area Ratio) [1, 4]: 1.8; Analysis of Residue on Paper after Standing 15 Minutes (Area Ratio) [1, 5]: 0.38; Analysis of Residue on Paper after Standing 15 Minutes (Area Ratio) [1, 6]: 8.1; Analysis of Residue on Paper after Standing 15 Minutes (Area Ratio) [1, 7]: 8; Analysis of Residue on Paper after Standing 15 Minutes (Area Ratio) [1, 8]: 1; Analysis of Residue on Paper after Standing 15 Minutes (Area Ratio) [1, 9]: 0 |
| CCOC(=O)CC(O)(CC(=O)OCC)C(=O)OCC [Triethyl Citrate] | – | – | – | – | – | – | > 25 | – | – | – | – | – | – | – | – | – | – | – | – |
| CC(O)CO (stereo not drawn) [Propylene Glycol] | – | – | – | – | – | – | 23.9 | – | – | – | – | – | – | – | – | – | – | – | – |
| CCOC(=O)c1ccccc1C(=O)OCC [Diethyl Phthalate, diethyl phthalate] | 1.2 | 31.3 | 40.5 | 18.4 | 0.0 | 0.9 | – | 6.86 | 2.5 × 10^6 | 6.86 | 0.001 | 4.2 × 10^4 | 6.86 | 0.001 | 5.2 × 10^5 | 6.86 | 0 | not assimilated | – |
| dipropylene glycol | 3.7 | 2.7 | 42.8 | 40.0 | 0.0 | 0.2 | 17.6 | 6.84 | 3.1 × 10^6 | 6.84 | 0 | 7.2 × 10^7 | 6.82 | 0.005 | 4.7 × 10^6 | 6.82 | 0 | not assimilated | Analysis of Residue on Paper after Standing 15 Minutes (Area Ratio) [1, 4]: 1.1; Analysis of Residue on Paper after Standing 15 Minutes (Area Ratio) [1, 5]: 0; Analysis of Residue on Paper after Standing 15 Minutes (Area Ratio) [1, 6]: 4.9; Analysis of Residue on Paper after Standing 15 Minutes (Area Ratio) [1, 7]: 4.1; Analysis of Residue on Paper after Standing 15 Minutes (Area Ratio) [1, 8]: 1; Analysis of Residue on Paper after Standing 15 Minutes (Area Ratio) [1, 9]: 0 |
| CC(C)OC(=O)CCCCC(=O)OC(C)C [Diisopropyl Adipate, diisopropyl adipate] | – | – | – | – | – | – | – | 6.90 | 4.0 × 10^5 | 6.90 | 0.005 | 1.9 × 10^7 | 5.32 | 0.26 | < 10^3 | 4.22 | 0.46 | assimilated very well | – |
| CCCCCCCCCCCCCC(=O)OC(C)C [Isopropyl Myristate] | – | – | – | – | – | – | > 25 | – | – | – | – | – | – | – | – | – | – | – | – |
| CCCCC(CC)COC(=O)CCCCC(=O)OCC(CC)CCCC (stereo not drawn) [Di-2-ethylhexyl Adipate, di-2-ethylhexyl adipate] | – | – | – | – | – | – | – | 6.86 | 1.3 × 10^6 | 6.60 | 0.008 | 5.0 × 10^7 | 6.30 | 0.01 | 1.4 × 10^9 | 6.10 | 0.15 | gradually assimilated as time passed | – |
